{"source": "patent US20240358665A1", "about": "“SMALL MOLECULE MELPHALAN HYDROGEL AND METHOD FOR PREPARING THE SAME” (Changzhi Medical College, priority 2024, published 2024)", "test": "Change of transmittance over time at 790 nm (ultraviolet spectrophotometer)", "assay_type": "physicochemical", "settings": "melphalan dissolved in physiological saline (FIG. 5: 0.9% NaCl, content 2%)", "procedure": "The small molecule melphalan hydrogels prepared in Embodiments 1 to 3 of the present disclosure are tested for transmittance, and the specific testing steps are as follows: • Prepare small molecule melphalan solutions according to the methods in Embodiments 1 to 3 above, take 3 mL of the solution and place it in a glass dish, and place the glass dish in an ultraviolet spectrophotometer, and measure the change of transmittance over time, at 790 nm. The phenomenon that the transmittance gradually decreases from 100% (solution state) to less than 10% proves that the small molecule melphalan solution is transformed into a hydrogel."}
{"compound": "N[C@@H](Cc1ccc(N(CCCl)CCCl)cc1)C(=O)O", "note": "[melphalan, Melphalan]", "values": [{"measurement": "transmittance after gelation (falls from 100% in solution state)", "value": "less than 10%"}]}
